{"source": "patent US20060258697A1", "about": "“Method of augmenting the antitumor activity of anticancer agents” (priority 2003, published 2006)", "key": {"nude mice": {"tested_on": "nude mice", "details": "taxotere 100 mg/kg single i.v.", "description": "Taxotere was administered to nude mice at non-toxic (60 mg/kg) or toxic (100 mg/kg) dose by a single i.v. injection and MSC was administered by oral route daily for 14 days with the first dose of MSC started before taxotere treatment."}, "[1]": {"tested_on": "A253 squamous cell carcinoma of the head and neck xenografts", "experiment": "Cure rate / antitumor activity in nude mice bearing A253 head and neck xenografts", "assay_type": "in vivo", "protocol": "(§1) 5-Methylselenocysteine (MSC). Two schedules were evaluated: 1) in combination with irinotecan, MSC (0.2 mg/mouse/d×28) was administered orally for 28 days with the first dose administered daily for seven days prior to the weekly drug administration and 2) in combination with other drugs, MSC was administered orally (0.2 mg/mouse/d×14) daily for 14 days with the first dose administered daily for seven days prior to the single i.v. administration of taxol, CDDP, Dox, taxotere and cyclophosphamide.\n(§2) Anticancer drug administration. The anticancer drugs administration schedule was as follows. • i. Irinotecan (CPT-11), weekly i.v. push for four (4) weeks, • ii. Taxol, single i.v. push, • iii. Cisplatin (CDDP), single i.v. push. • iv. Doxorubin (Dox), single i.v. push. • v. Cyclophosphamide, single i.v. push. • vi. Oxaliplatin, single i.v. push • vii. Taxotere, single i.v. push\nTumor Xenografts. […] The following tumor xenografts were established. • i. HCT-8: poorly-differentiated colon carcinoma, expressing wild type p53 • ii. HT-29: well-differentiated colon carcinoma expressing mutant p53 • iii. A253: well-differentiated squamous cell carcinoma of the head and neck (SCCHN) expressing no p53 • iv. FaDu: poorly-differentiated squamous cell carcinoma of the head and neck (SCCHN) expressing mutant p53\nThis example describes the comparative antitumor activity of MSC and SLM in combination with the maximum tolerated dose of irinotecan. […] As an illustration, MSC and SLM were used in combination with irinotecan. The results, shown in FIG. 3, represent a comparative evaluation of the effect of MSC and SLM (0.2 mg/mouse/d×28) on the antitumor activity of irinotecan (100 mg/kg/wk×4).\nTo determine whether therapeutic synergy achieved with irinotecan in xenografts is specific for MSC, the antitumor activity of irinotecan with and without two selenium-containing compounds, MSC and SLM were compared in xenografts bearing A253 (SCCHN) tumors for the […] (200 mg/kg/wk×4). The data compare the antitumor activity of MSC with SLM in combination with irinotecan (200 mg/kg/wk×4).\n(§3) This example describes the modulation of the antitumor activity of anticancer drugs by MSC in mice bearing human tumors. […] To determine whether modulation of the therapeutic efficacy and cure of irinotecan by MSC is drug specific, the antitumor activity of drugs, representing different classes and mechanisms of action were evaluated alone and in combination with non-toxic doses and schedules of MSC (0.2 mg/mouse/d×14) in xenografts bearing human A253 and FaDu (SCCHN) tumors (FIG. 5). The data in FIG. 5 represent the use of the MTD doses of cisplatin (8 mg/kg×1), cyclophosphamide (100 mg/kg×1), taxol (35 mg/kg ×1.) and doxorubicin (10 mg/kg×1)."}, "[2]": {"tested_on": "FaDu squamous cell carcinoma of the head and neck xenografts", "experiment": "Cure rate / antitumor activity in nude mice bearing FaDu head and neck xenografts", "assay_type": "in vivo", "protocol": "as §1, §2\nTumor Xenografts. […] The following tumor xenografts were established. • i. HCT-8: poorly-differentiated colon carcinoma, expressing wild type p53 • ii. HT-29: well-differentiated colon carcinoma expressing mutant p53 • iii. A253: well-differentiated squamous cell carcinoma of the head and neck (SCCHN) expressing no p53 • iv. FaDu: poorly-differentiated squamous cell carcinoma of the head and neck (SCCHN) expressing mutant p53 […]\nas §3\nIn mice, MSC was orally administered at 0.2 mg/mouse/d with the first daily dose administered seven days prior to single i.v. administration of drug and continuous for additional seven days for a total MSC treatment of 14 days."}, "in vivo": {"experiment": "in vivo", "details": "nude, mouse"}}, "data": [{"smiles": "CC(=O)O[C@@]12CO[C@@H]1C[C@H](O)[C@@]1(C)C(=O)[C@H](O)C3=C(C)[C@@H](OC(=O)[C@H](O)[C@@H](NC(=O)OC(C)(C)C)c4ccccc4)C[C@@](O)([C@@H](OC(=O)c4ccccc4)[C@H]21)C3(C)C", "note": "[Taxotere]", "values": [{"measurement": "lethality", "setting": "nude mice", "result": 40, "unit": "%"}, {"measurement": "CR (%) (complete tumor regression)", "setting": "[1]", "result": 0, "unit": "%"}, {"measurement": "PR (%) (partial tumor regression, >50% tumor reduction)", "setting": "[1]", "result": 20, "unit": "%"}, {"measurement": "animals cured of their tumors", "setting": "[1]; A253, taxotere 60 mg/kg single i.v., alone or with MSC 0.2 mg/mouse/d × 14", "result": "insensitive"}, {"measurement": "animals cured of their tumors", "setting": "[2]; FaDu, taxotere 60 mg/kg single i.v., alone or with MSC 0.2 mg/mouse/d × 14", "result": "insensitive"}, {"measurement": "PR (%) (partial tumor regression, >50% tumor reduction)", "setting": "[2]; Table 3 first column pair (head printed 'FaUra'), drug dose mg/kg and MSC mg/mouse/day in parentheses of Treatment", "result": 40, "unit": "%"}, {"measurement": "CR (%) (complete tumor regression)", "setting": "[2]; Table 3 first column pair (head printed 'FaUra'), drug dose mg/kg and MSC mg/mouse/day in parentheses of Treatment, schedules per footnote", "result": 0, "unit": "%"}, {"measurement": "MTD", "setting": "in vivo", "result": 60, "unit": "mg/kg"}]}]}
